Results taken from patent US8029980B2, “Identification and use of agents that modulate oncogenic transcription agent activity” (The Board of Trustees of the University of Illinois, priority 2006, dated 2011).

System: Wild type MRC-5 human fetal lung fibroblasts
Assay: Apoptosis assay (DAPI staining, caspase-3 and survivin immunoblot) in normal fibroblasts
Type: cell-based
Protocol: FIG. 4. Anti-cancer properties of Siomycin A. (A) Representative photographs from soft agar experiment as described in Example 1 are shown. (B) Number of colonies in the soft agar were quantitated and plotted in the form of bar graphs. (C) Wild type and SV40-transformed MRC-5 human fetal lung fibroblasts were treated with indicated concentrations of Siomycin A for 48 hrs. Photographs from phase contrast microscopy (top panel) and fluorescent microscopy after DAPI staining (bottom panel) are shown. (D) Apoptotic nuclei from normal and SV40-transformed MRC-5 fibroblasts treated with indicated concentrations of Siomycin A for 24 hrs were scored after DAPI staining and percentage cell death (mean±sd; n=3) is shown. (E) Wild type and SV40-transformed MRC-5 fibroblasts were treated with Siomycin A as indicated for 48 hrs and the cell lysates were used for immunoblotting and probed for levels of survivin and cleaved caspase-3.
Immunoblotting was performed as described (18-20) with antibodies specific for p21 (556431; BD Pharmingen), survivin (sc-10811; Santa Cruz), cleaved caspase-3 (9664; Cell Signaling), and β-actin (A5441; Sigma) antibodies. Immunoblot for FoxM1 was done using the previously generated rabbit antisera (2), and phospho-FoxM1 was detected using the MPM2 monoclonal antibody (Upstate Biotechnology) which recognizes the phosphorylated protein sequence phosphoserine/phosphothreonine-proline.
Apoptosis was detected by DAPI (4′,6-diamidino-2-phenylindole) staining. All treatments were done in triplicates in 6-well plates and cells were stained with DAPI and visualized by fluorescent microscopy. Four random fields for each sample were photographed and at least 500 cells per field were counted to estimate apoptosis. The data is represented as mean±sd.

[1] = normal cells, 48 hrs, immunoblot

C=C(NC(=O)C(=C)NC(=O)c1csc(C2=N[C@@H]3c4csc(n4)[C@H]4NC(=O)c5csc(n5)[C@H]([C@](C)(O)[C@@H](C)O)NC(=O)[C@H]5CSC(=N5)/C(=C/C)NC(=O)[C@H]([C@@H](C)O)NC(=O)c5csc(n5)[C@]3(CC2)NC(=O)[C@H](C)NC(=O)C(=C)NC(=O)C(=C)NC(=O)[C@H](C(C)C)N[C@@H]2C=Cc3c([C@H](C)O)cc(nc3[C@H]2O)C(=O)O[C@@H]4C)n1)C(N)=O [Siomycin A]
cleavage of caspase-3 [1]: but not normal cells showed cleavage of caspase-3
survivin levels [1]: effectively repress survivin levels
apoptosis / cell death (untransformed normal cells, forty-eight hours after treatment): did not exhibit significant cell death
